# Columns and labels:
# Assay in all cases: relative viability (nuclei count vs DMSO), 5 days (fraction); higher = more cells survive
# [1] = compound: O=C(CCCCCCC(=O)Nc1ccccc1)NO [Vorinostat] + CC(=O)Nc1cccc(-n2c(=O)n(C3CC3)c(=O)c3c(Nc4ccc(I)cc4F)n(C)c(=O)c(C)c32)c1 [Trametinib] (partner 0.02 µM)
# How it was run: (§1)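 Relative viability equals treated-well nuclei counts divided by vehicle-well nuclei counts. Counts came from 4× images of lung cancer cell lines grown in 1536-well plates for 5 days after pin-tool dosing on the day after seeding. Dosing used one drug alone or a fixed anchor-drug dose plus five library-drug doses (not always all listed) in √10 steps, and values are medians of duplicate plates.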
# [2] = compound: O=C(CCCCCCC(=O)Nc1ccccc1)NO [Vorinostat] + CS(=O)(=O)N1CCN(Cc2cc3nc(-c4cccc5[nH]ncc45)nc(N4CCOCC4)c3s2)CC1 [Pictilisib] (partner 1 µM)
# How it was run: as §1
# [3] = compound: O=C(CCCCCCC(=O)Nc1ccccc1)NO [Vorinostat] + N=C(N)NC(=N)NCCc1ccccc1 [Phenformin] (partner 250 µM)
# How it was run: as §1
# [4] = compound: O=C(CCCCCCC(=O)Nc1ccccc1)NO [Vorinostat] + NC(=O)Nc1cc(-c2cccc(F)c2)sc1C(=O)N[C@H]1CCCNC1 [AZD7762] (partner 0.2 µM)
# How it was run: as §1
# [5] = compound: O=C(CCCCCCC(=O)Nc1ccccc1)NO [Vorinostat] + Nc1nc2[nH]cc(CCc3ccc(C(=O)N[C@@H](CCC(=O)O)C(=O)O)cc3)c2c(=O)[nH]1 [Pemetrexed] (partner 0.2 µM)
# How it was run: as §1
Cell Line,relative viability ([1]; first compound 0.253 µM),relative viability ([1]; first compound 0.8 µM),relative viability ([1]; first compound 2.53 µM),relative viability ([1]; first compound 8 µM),relative viability ([2]; first compound 0.253 µM),relative viability ([2]; first compound 0.8 µM),relative viability ([2]; first compound 2.53 µM),relative viability ([2]; first compound 8 µM),relative viability ([3]; first compound 0.253 µM),relative viability ([3]; first compound 0.8 µM),relative viability ([3]; first compound 2.53 µM),relative viability ([3]; first compound 8 µM),relative viability ([4]; first compound 0.253 µM),relative viability ([4]; first compound 0.8 µM),relative viability ([4]; first compound 2.53 µM),relative viability ([4]; first compound 8 µM),relative viability ([5]; first compound 0.253 µM),relative viability ([5]; first compound 0.8 µM),relative viability ([5]; first compound 2.53 µM),relative viability ([5]; first compound 8 µM)
HCC-827,0.712,0.642,0.351,0.163,1.1,1.08,0.732,0.411,0.455,0.521,0.453,0.239,0.181,0.321,0.215,0.178,0.269,0.278,0.212,0.153
LCLC-103H,0.804,0.7,0.473,0.337,0.794,0.55,0.306,0.211,0.322,0.332,0.267,0.151,0.696,0.672,0.45,0.238,0.471,0.425,0.452,0.32
NCI-H2009,0.336,0.311,0.237,0.119,1.3,0.747,0.346,0.0949,0.545,0.496,0.319,0.144,–,–,–,–,0.993,0.955,0.666,0.131
COR-L 105,0.546,0.542,0.343,0.288,0.438,0.261,0.262,0.201,0.609,0.54,0.199,0.234,–,–,–,–,1.21,1.25,0.7,0.281
NCI-H441,0.555,0.602,0.226,0.127,0.517,0.448,0.164,0.11,1.1,0.863,0.317,0.169,1.21,0.903,0.238,0.122,0.252,0.232,0.253,0.143
ChaGo-K-1,0.973,0.792,0.5,0.193,0.832,0.597,0.345,0.246,0.551,0.538,0.45,0.183,0.862,0.867,0.567,0.173,0.254,0.26,0.254,0.218
EPLC-272H,0.296,0.269,0.168,0.11,0.309,0.227,0.212,0.145,0.321,0.332,0.104,0.084,0.135,0.171,0.069,0.138,0.367,0.381,0.212,0.159
SK-LU-1,0.495,0.474,0.41,0.205,0.595,0.55,0.351,0.133,0.658,0.549,0.285,0.123,–,–,–,–,0.936,0.807,0.64,0.179
NCI-H2228,0.67,0.464,0.219,0.101,0.649,0.223,0.142,0.138,0.388,0.27,0.136,0.102,–,–,–,–,0.336,0.297,0.252,0.132
NCI-H1734,0.721,0.713,0.5,0.117,0.512,0.49,0.299,0.13,0.501,0.388,0.297,0.0963,0.306,0.292,0.162,0.0959,0.44,0.413,0.408,0.131
COR-L23,0.79,0.447,0.159,0.0825,0.728,0.451,0.0944,0.0511,0.368,0.322,0.107,0.0712,–,–,–,–,0.2,0.182,0.148,0.12
NCI-H1563,–,–,–,–,0.682,0.637,0.68,0.592,0.771,0.727,0.556,0.492,–,–,–,–,0.877,0.651,0.708,0.384
UMC-11,0.845,0.245,0.0839,0.0678,0.975,0.29,0.0923,0.0756,0.325,0.199,0.123,0.115,–,–,–,–,0.756,0.453,0.119,0.0862
NCI-H661,0.767,0.614,0.303,0.301,0.557,0.696,0.462,0.214,0.38,0.3,0.213,0.268,–,–,–,–,0.926,0.78,0.455,0.355
NCI-H1703,–,–,–,–,0.31,0.233,0.363,0.2,–,–,–,–,0.126,–,0.189,0.0985,–,–,–,–
NCI-H520,0.959,0.549,0.212,0.124,0.369,0.213,0.21,0.146,0.717,0.482,0.374,0.164,–,–,–,–,0.831,0.663,0.322,0.17
ABC-1,–,–,–,–,0.981,0.509,0.168,0.118,0.254,0.307,0.183,0.156,0.875,0.587,0.309,0.125,–,–,–,–
IA-LM,–,–,–,–,0.309,0.25,0.114,0.0475,–,–,–,–,–,–,–,–,–,–,–,–
NCI-H727,0.369,0.392,0.27,0.267,0.458,0.455,0.243,0.188,0.964,0.395,0.478,0.255,0.514,0.874,0.617,0.398,–,–,–,–
SW 900,0.739,0.703,0.249,0.129,–,–,–,–,0.73,0.391,0.322,0.091,0.606,0.418,0.229,0.0892,0.502,0.483,0.308,0.147
